In paper PMC9545474, “Anticancer Water‐Soluble Organoruthenium Complexes: Synthesis and Preclinical Evaluation” (Chembiochem, 2022):

Key:
[1] = system: A2780 subcutaneous tumour xenograft; assay: Efficacy in A2780 subcutaneous tumour xenograft model; assay type: in vivo, Female Balb/c immunodeficient nude mice; conditions: 6 at 50 mg/kg, 8 at 15 mg/kg, i.p.; for Maximum % weight loss / Median time to RTV2: days 0–4; for Growth delay: days 0–4, versus untreated
Method: Compounds: All compounds were provided in powdered form and stored in the −20 °C freezer. They were formulated just before use. […] The drugs were then administered within 10 minutes of initial dilution.
Animals: Female Balb/c immunodeficient nude mice aged 6–12 weeks were used (Envigo, Blackthorn, UK). Mice were kept in cages housed in isolation cabinets in an air‐conditioned room with regular alternating cycles of light and darkness. They received Teklad 2018 diet (Envigo, Blackthorn, UK) and water ad libitum. All animal procedures were carried out under a project licence issued by the UK Home Office and UK National Cancer Research Institute Guidelines for the Welfare of Animals were followed throughout.
S.c. xenograft tumours: A2780/WT and A2780/cis tumours were excised from a donor animal, placed in sterile physiological saline containing antibiotics and cut into small fragments of approximately 5 mm^3. Under brief general inhalation anaesthesia, fragments were implanted in the flank of each mouse using a trocar. Once the tumours could accurately be measured by callipers, the mice were allocated into groups (control or treated) by restricted randomisation to keep group mean tumour size variation to a minimum, with 3 animals set up per group.
Evaluation of efficacy in s.c. xenograft models: The compounds were prepared fresh on the days of treatment as described above and administered i. p. to mice on days 0–4 in a volume of 0.1 mL per 10 g of body weight. […] The negative control group was untreated.
The effects of therapy were assessed by frequent monitoring growth of the tumours and body weight. Two‐dimensional calliper measurements of the tumours were taken, and volumes calculated using the formula (a^2×b)/2, where a is the smaller and b the larger diameter of the tumour. Tumour volume was then normalised to the respective volume on day 0, and semi‐log plots of relative tumour volume (RTV) versus time were made. Mann‐Whitney U tests were performed to determine the statistical significance of any differences in growth rate (based on tumour volume doubling time, RTV2) between control and treated groups.

[2] = system: PNT2 non-cancerous human prostate cells; assay: 24-hour MTT chemosensitivity assay with 72-hour recovery, PNT2; assay type: cell-based; conditions: 24 h exposure, 72 h recovery, MTT; read-out: IC50 values ±SD, PNT2
Method: (§1) Chemosensitivity studies were undertaken using a 24‐hour MTT assay, with a 72‐hour recovery period. The IC50 values were determined against ovarian A2780 (cisplatin‐sensitive) and A2780cisR (cisplatin‐resistant) cancer cell lines, non‐small‐cell lung H460 cancer cell line, and normal prostate PNT2 cell line, exposed to each of compounds 4–8, cisplatin or the phosphine ligands (Table 1 and S4, Figures S29–S31). […] This is unusual but can be related to solubility issues not visible for the naked eye and thus hindering its activity in cells. […] When tested on their own, the phosphine ligands are not active below 100 μM for all four cell lines. […] This therefore prevents comparison with the well‐known RAPTA family, and more especially with RAPTA−C which bears a PTA ligand and a p‐cym ligand, making this complex relatively similar in terms of geometry with complex 4.[21] […] This confirms the interest of the sulfur coordinating atom in terms of cytotoxicity for organoruthenium complexes.[23]
(§2) Chemosensitivity assay: In vitro chemosensitivity tests were performed against A2780, A2780cisR, PNT2 and H460 cells. Cells were routinely maintained as monolayer cultures in RPMI 1640 medium supplemented with 10 % foetal calf serum, penicillin (100 I.U./mL) and streptomycin (100 μg/mL), sodium pyruvate (1 mM) and L‐glutamine (2 mM). For chemosensitivity studies, cells were seeded in 96‐well plates at a concentration of 7.5×10^3 cells per well and the plates were incubated for 24 h at 37 °C and a 5 % CO2 humidified atmosphere prior to drug exposure.
(§3) Complexes were dissolved in either DMSO (complexes 4, 5, and 8) or PBS (complexes 6 and 7) to provide stock solutions which were further diluted with media to provide a range of final concentrations. Drug‐media solutions were added to cells (the final concentration of DMSO was less than 1 % (v/v) in all cases) and incubated for 24 h at 37 °C and a 5 % CO2 humidified atmosphere. The drug‐media solution was removed from the wells and the cells were washed with PBS (100 μL, twice) and 200 μL of complete fresh media were added to each well. The plates were further incubated for 72 h at 37 °C and a 5 % CO2 humidified atmosphere to allow for a period of recovery. 3‐(4,5‐dimethylthiazol‐2‐yl)‐2,5‐diphenyltetrazolium bromide (MTT) (40 μL, 2.5 mg/mL) was added to each well and plates were incubated for 2 h. All solutions were then removed and 100 μL of DMSO was added to each well in order to dissolve the purple formazan crystals. A Thermo Scientific Multiskan EX microplate photometer was used to measure the absorbance in each well at 570 nm. Cell survival was determined as the absorbance of treated cells divided by the absorbance of controls and expressed as a percentage. The IC50 values were determined from plots of % survival against drug concentration. Each experiment was repeated in triplicates of triplicates and a mean value was obtained and stated as IC50 (μM) ± SD. Untreated cells were used as a negative control, and cells treated with cisplatin were used as a positive control.

[3] = system: A2780cisR cisplatin-resistant ovarian cancer cells; assay: 24-hour MTT chemosensitivity assay with 72-hour recovery, A2780cisR; assay type: cell-based, human; conditions: for IC50: 24 h exposure, 72 h recovery, MTT, read-out: IC50 values ±SD, A2780cisR; for Selectivity index (SI), A2780cisR: mean IC50 PNT2 / mean IC50 A2780cisR
Method: as §1, §2, §3

[4] = system: A2780 cells; assay: Cell viability with N-acetylcysteine (MTT), A2780; assay type: cell-based, human; conditions: A2780, NAC 5 mM 30 min before complexes at IC50
Method: (§4) Cell viability with N ‐acetylcysteine: Cells were seeded in 96‐well plates at a concentration of 7.5×10^3 cells per well and the plates were incubated for 24 h at 37 °C and a 5 % CO2 humidified atmosphere prior to drug exposure. Complexes were dissolved in either DMSO or PBS to provide stock solutions which were further diluted with media to provide a range of final concentrations. Solution of N‐acetylcysteine (NAC) in media was also prepared. […] Cells were incubated for 24 h at 37 °C and a 5 % CO2 humidified atmosphere. 3‐(4,5‐dimethylthiazol‐2‐yl)‐2,5‐diphenyltetrazolium bromide (MTT) (20 μL, 2.5 mg/mL) was added to each well and plates were incubated for 2 h. All solutions were then removed and 100 μL of DMSO was added to each well in order to dissolve the purple formazan crystals. A Thermo Scientific Multiskan EX microplate photometer was used to measure the absorbance in each well at 570 nm. Cell survival was determined as the absorbance of treated cells divided by the absorbance of controls and expressed as a percentage.

[5] = system: A2780 cells; assay: ROS detection, DCFH2-DA assay by flow cytometry; assay type: cell-based, human; conditions: A2780, five hours, IC50 concentrations
Method: To confirm the hypothesis of induction of oxidative stress by complexes 6 and 8, based on the potential mechanism of action observed for complex 3, the intracellular production of ROS in A2780 cells exposed to the complexes was investigated using the fluorescent DCFH2‐DA assay with the analysis performed by flow cytometry.
ROS detection: Flow cytometry analysis of total induction of ROS in A2780 cells caused by exposure to complexes 6 and 8 was carried out using DCFH2‐DA assay. Briefly, 1.0×10^6 cells per well were seeded in a 6‐well plate and incubated for 24 at 37 °C and a 5 % CO2 humidified atmosphere. After removal of the media, cells were washed with PBS and loaded with DCFH2‐DA dye (20 μM, in basal RPMI). […] Cells were washed with PBS and harvested with trypsin. Cells were analysed in a BD Accuri C6 Plus System Flow Cytometer using Ex/Em: 490/525 nm for the oxidative stress detection. Data was analysed using the BD Accuri C6 Plus software.

[6] = system: A2780 ovarian cancer cells; assay: 24-hour MTT chemosensitivity assay with 72-hour recovery, A2780; assay type: cell-based, human; conditions: for IC50: 24 h exposure, 72 h recovery, MTT, read-out: IC50 values ±SD, A2780; for Selectivity index (SI), A2780: mean IC50 PNT2 / mean IC50 A2780
Method: as §1, §2, §3

[7] = system: A2780cisR cells; assay: Cell viability with N-acetylcysteine (MTT), A2780cisR; assay type: cell-based, human; conditions: NAC 5 mM 30 min before complexes at IC50
Method: as §4

Compound	Maximum % weight loss [1] [%]	Median time to RTV2 [1] [days]	Growth delay [1] [days]	IC50 [2] [nM]	IC50 [3] [nM]	Selectivity factor (cross-resistance, resistance factor RF) ([3]; IC50 A2780cisR / IC50 A2780)	Selectivity index (SI), A2780cisR [3]	Cell viability after pre-treatment with NAC [4]	ROS levels in treated cells compared to untreated cells [5]	IC50 [6] [nM]	Selectivity index (SI), A2780 [6]	Cell viability after pre-treatment with NAC [7]	Toxicity in xenograft study [1]
(η^6‐p‐cymene)(TPPTS)Ru(Mnt) [Complex 6]	0	2.0	0.6	1600 ± 300	1300 ± 10	2.2	1.23	increase of the cell viability	significant increase of ROS levels	600 ± 70	2.67	increase of the cell viability	
Cc1ccc(C(C)C)cc1.N#CC1=C(C#N)[S][Ru-]([P+](c2ccccc2)(c2ccccc2)c2ccccc2)[S]1 [Complex 8, (η^6‐p‐cymene)(PPh3)Ru(Mnt)]	0	1.5	0.1	2400 ± 200	980 ± 60		2.45	increase of the cell viability	significant increase of ROS levels	960 ± 40	2.50	increase of the cell viability	No toxicity was observed
